This note sets out measurements from patent publication US8604044B2, “Quinazoline based EGFR inhibitors containing a zinc binding moiety” (Curis, Inc., priority 2006, dated 2013).

In one data set the target is T1, human EGFR (Homo sapiens, UniProt P00533).
T1 construct: human EGFR (His672-Ala1210); purchased Cell Signaling Technologies; host or cells: baculovirus expression system
In words: HTScan EGF Receptor Kinase Assay. The format is biochemical. The settings on record: for IC50: read-out: EGFR IC50 grading. Here is the method:
The ability of compounds to inhibit receptor kinase (EGFR) activity was assayed using HTScan™ EGF Receptor Kinase Assay Kits (Cell Signaling Technologies, Danvers, Mass.). […] The protein was purified by one-step affinity chromatography using glutathione-agarose.
Immediately transfer enzyme from −80° C. to ice. Allowed enzyme to thaw on ice. […] Returned immediately to ice. […] Incubated reaction plate at room temperature for 30 minutes. […] Added 100 μl/well primary antibody. Incubated at room temperature for 60 minutes. […] Added 100 μl/well diluted antibody. Incubated at room temperature for 30 minutes. […] Incubated at room temperature for 5 minutes.

The next data set addresses T2, HER2 (Homo sapiens, UniProt P04626).
T2 construct: human HER2 amino acids 679-1255; host or cells: baculovirus in Sf9 insect cells
In words: Radioisotope assay for HER2. The settings on record: read-out: HER2/ErB2 IC50 grading. Format: biochemical. The procedure:
Protocol for Radioisotope Assay for HER2
10 nM HER2 and 0.1 mg/ml polyEY were placed in the reaction buffer and 2 mM MnCl2, 1 μM ATP and 1% DMSO final were added. The reaction mixture was incubated for 2 hours at room temperature.
MW=91.6 kDa. […] Enzyme is in 25 mM Tris-HCl, pH 8.0, 100 mM NaCl, 0.05% Tween-20, 50% glycerol, 10 mM reduced glutathione, and 3 mM DTT.

The next data set concerns HDAC. In words: HDAC fluorimetric assay (HDAC enzymatic activity, HeLa nuclear extract). The format is biochemical. The settings on record: for IC50: HeLa nuclear extract, read-out: HDAC IC50 grading. The procedure: HDAC inhibitors were screened using an HDAC fluorimetric assay kit (AK-500, Biomol, Plymouth Meeting, Pa.).
Each assay was setup as follows: Defrosted all kit components and kept on ice until use. […] Prepared dilutions of Trichostatin A (TSA, positive control) and tested compounds in assay buffer (5× of final concentration). Diluted Fluor de Lys™ Substrate in assay buffer to 100 uM (50 fold=2× final). Diluted Fluor de Lys™ developer concentrate 20-fold (e.g. 50 μl plus 950 μl Assay Buffer) in cold assay buffer. Second, diluted the 0.2 mM Trichostatin A 100-fold in the 1× Developer (e.g. 10 μl in 1 ml; final Trichostatin A concentration in the 1× Developer=2 μM; final concentration after addition to HDAC/Substrate reaction=1 μM). Added Assay buffer, diluted trichostatin A or test inhibitor to appropriate wells of the microtiter plate. Added diluted HeLa extract or other HDAC sample to all wells except for negative controls.

Structures are written as SMILES.

T2 sequence (P04626 679-1255): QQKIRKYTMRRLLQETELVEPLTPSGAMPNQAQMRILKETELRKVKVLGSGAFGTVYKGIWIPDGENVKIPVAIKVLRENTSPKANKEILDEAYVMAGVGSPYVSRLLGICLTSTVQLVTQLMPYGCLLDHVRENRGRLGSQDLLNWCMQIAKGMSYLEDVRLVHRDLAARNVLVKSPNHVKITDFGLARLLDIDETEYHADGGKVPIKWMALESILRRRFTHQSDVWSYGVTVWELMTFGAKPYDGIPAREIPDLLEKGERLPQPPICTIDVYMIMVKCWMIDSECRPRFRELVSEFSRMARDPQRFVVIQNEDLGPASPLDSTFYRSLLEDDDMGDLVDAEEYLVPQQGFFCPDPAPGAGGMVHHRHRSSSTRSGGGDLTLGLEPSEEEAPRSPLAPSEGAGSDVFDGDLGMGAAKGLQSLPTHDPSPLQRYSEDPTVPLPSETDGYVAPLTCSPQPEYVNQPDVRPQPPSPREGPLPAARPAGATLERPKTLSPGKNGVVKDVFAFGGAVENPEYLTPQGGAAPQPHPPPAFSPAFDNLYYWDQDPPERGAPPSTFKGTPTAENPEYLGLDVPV
T1 sequence (P00533 672-1210): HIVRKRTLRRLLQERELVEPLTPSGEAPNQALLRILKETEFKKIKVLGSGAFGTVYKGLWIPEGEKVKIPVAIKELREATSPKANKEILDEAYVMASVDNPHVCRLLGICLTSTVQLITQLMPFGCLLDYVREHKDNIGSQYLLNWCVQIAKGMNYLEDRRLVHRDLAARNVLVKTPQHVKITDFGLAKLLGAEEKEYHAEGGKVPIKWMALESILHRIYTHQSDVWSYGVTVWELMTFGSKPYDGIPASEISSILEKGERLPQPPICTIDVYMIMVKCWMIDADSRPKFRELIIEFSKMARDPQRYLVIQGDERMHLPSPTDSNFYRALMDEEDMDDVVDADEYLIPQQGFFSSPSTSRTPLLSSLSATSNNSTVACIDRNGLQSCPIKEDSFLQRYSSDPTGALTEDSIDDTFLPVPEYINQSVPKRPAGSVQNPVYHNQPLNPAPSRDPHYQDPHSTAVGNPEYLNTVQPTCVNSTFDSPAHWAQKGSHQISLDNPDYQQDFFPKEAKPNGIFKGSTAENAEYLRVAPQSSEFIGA

Regarding `COc1cc2ncnc(Nc3ccc(F)c(Cl)c3)c2cc1OCCCCCCC(=O)NO` [Compound 6, 7-(4-(3-Chloro-4-fluorophenylamino)-7-methoxyquinazolin-6-yloxy)-N-hydroxyheptanamide], the “activity in EFGR enzyme assay compared with erlotinib” value on human EGFR (FIG. 1) was “more active”. Further, the IC50 at HER2 and in the data set with HDAC was under 100 nM throughout. Further, the “activity in HDAC enzyme assay compared with SAHA” value in the data set on HDAC (FIG. 1) is reported as “more active”.
For the compound `C#Cc1cccc(Nc2ncnc3cc(OC)c(OCC(=O)NO)cc23)c1` [Compound 7, 2-(4-(3-ethynylphenylamino)-7-methoxyquinazolin-6-yloxy)-N-hydroxyacetamide], the IC50 on HER2 is under 100 nM; in the data set with HDAC, over 10000 nM.
With `C#Cc1cccc(Nc2ncnc3cc(OC)c(OCCCCCC(=O)NO)cc23)c1` [Compound 11, 6-(4-(3-ethynylphenylamino)-7-methoxyquinazolin-6-yloxy)-N-hydroxyhexanamide], the IC50 at HER2 is 100 to 1000 nM; with HDAC, under 100 nM.
Turning to `O=C(CCCOc1ccc2ncnc(Nc3ccc(F)c(Cl)c3)c2c1)NO` [Compound 15, 4-(4-(3-chloro-4-fluorophenylamino)quinazolin-6-yloxy)-N-Hydroxybutanamide], the melting point was in the range of 128 to 132 °C. For the same compound, the IC50 in the data set with HDAC was under 100 nM.
As to `O=C(CCCCOc1ccc2ncnc(Nc3ccc(F)c(Cl)c3)c2c1)NO` [Compound 16, 5-(4-(3-chloro-4-fluorophenylamino)quinazolin-6-yloxy)-N-hydroxypentanamide], the melting point stood at 85.9 °C. Moreover, the IC50 in the data set on HDAC is 100 to 1000 nM.
As for `O=C(CCCCCCOc1ccc2ncnc(Nc3ccc(F)c(Cl)c3)c2c1)NO` [Compound 18, 7-(4-(3-chloro-4-fluorophenylamino)quinazolin-6-yloxy)-N-hydroxyheptanamide], the IC50 at HER2 was 100 to 1000 nM; in the data set on HDAC it was under 100 nM.
`C#Cc1cccc(Nc2ncnc3ccc(OCC(=O)NO)cc23)c1` [Compound 19, 2-(4-(3-ethynylphenylamino)quinazolin-6-yloxy)-N-hydroxyacetamide] displayed a melting point of 189 to 191 °C. Also, the IC50 in the data set on HDAC was over 10000 nM.
The compound `C#Cc1cccc(Nc2ncnc3ccc(OCCCC(=O)NO)cc23)c1` [Compound 21, 4-(4-(3-ethynylphenylamino)quinazolin-6-yloxy)-N-hydroxybutanamide] returned a melting point of 182 to 186 °C. Besides, the IC50 in the data set with HDAC was in the range of 1000 to 10000 nM.
Take `COCCOc1cc2ncnc(Nc3ccc(F)c(Cl)c3)c2cc1OCCCCCCC(=O)NO` [Compound 30, 7-(4-(3-Chloro-4-fluorophenylamino)-7-(2-methoxyethoxy)quinazolin-6-yloxy)-N-hydroxyheptanamide]: the IC50 on HER2 was 100 to 1000 nM; with HDAC, under 100 nM.
On to `COc1cc2ncnc(Nc3ccc(F)c(Cl)c3)c2cc1NC(=O)CCCCCCC(=O)NO` [Compound 40, N^1-(4-(3-chloro-4-fluorophenylamino)-7-methoxyquinazolin-6-yl)-N^8-hydroxyoctanediamide], for which the IC50 at HER2 is 100 to 1000 nM; in the data set on HDAC, under 100 nM.
The like results for `C#Cc1cccc(Nc2ncnc3cc(OC)c(NC(=O)CCCCCCC(=O)NO)cc23)c1` [Compound 44, N^1-(4-(3-ethynylphenylamino)-7-methoxyquinazolin-6-yl)-N^8-hydroxyoctanediamide] were, in that order, 100 to 1000 nM and under 100 nM.
For `COCCOc1cc2ncnc(Nc3ccc(F)c(Cl)c3)c2cc1NC(=O)CCCCCCC(=O)NO` [Compound 70, N^1-(4-(3-chloro-4-fluorophenylamino)-7-(2-methoxyethoxy)quinazolin-6-yl)-N^8-hydroxyoctanediamide], the IC50 at HER2 was under 100 nM.
For `C#Cc1cc(Nc2ncnc3cc(OC)c(OCCCCCCC(=O)NO)cc23)ccc1F` [Compound 75, 7-(4-(3-ethynyl-4-fluorophenylamino)-7-methoxyquinazolin-6-yloxy)-N-hydroxyheptanamide], the IC50 was 100 to 1000 nM on HER2 and under 100 nM with HDAC.
As for `C#Cc1cc(Nc2ncnc3cc(OCCOC)c(OCCCCCCC(=O)NO)cc23)ccc1F` [Compound 76], the IC50 on HER2 is 100 to 1000 nM; with HDAC it was under 100 nM.
The like results for `COc1cc2ncnc(N[C@H](C)c3ccccc3)c2cc1OCCCCCCC(=O)NO` [Compound 79, (R)—N-hydroxy-7-(7-methoxy-4-(1-phenylethylamino)quinazolin-6-yloxy)heptanamide] were, in that order, 100 to 1000 nM and under 100 nM.
For the compound `COc1cc2ncnc(NCc3ccccc3)c2cc1OCCCCCCC(=O)NO` [Compound 85, 7-(4-(Benzylamino)-7-methoxyquinazolin-6-yloxy)-N-hydroxyheptanamide], the IC50 on HER2 is 100 to 1000 nM; with HDAC, under 100 nM.
On to `COc1cc2ncnc(Nc3ccc(F)c(Cl)c3)c2cc1OCCCCCCN(O)C(N)=O` [Compound 102], for which, on human EGFR, the IC50 is under 100 nM.
Regarding `COc1cc2ncnc(Nc3ccc(F)c(Cl)c3)c2cc1SCCCCC(=O)NO` [Compound 151, 5-(4-(3-chloro-4-fluorophenylamino)-7-methoxyquinazolin-6-ylthio)-N-hydroxypentanamide], the IC50 at human EGFR and on HER2 was under 100 nM in each case.
Turning to `COc1cc2ncnc(Nc3ccc(F)c(Cl)c3)c2cc1SCCCCCCC(=O)NO` [Compound 155, 7-(4-(3-Chloro-4-fluorophenylamino)-7-methoxyquinazolin-6-ylthio)-N-hydroxyheptanamide], the IC50 on human EGFR and at HER2 was under 100 nM each time.
On to `COc1cc2c(Nc3ccc(F)c(Cl)c3)ncnc2cc1OCCCCCCC(=O)NO` [Compound 161, 7-(4-(3-chloro-4-fluorophenylamino)-6-methoxyquinazolin-7-yloxy)-N-hydroxyheptanamide], for which the IC50 is 100 to 1000 nM at HER2 and under 100 nM in the data set on HDAC.
Regarding `C#Cc1cccc(Nc2ncnc3cc(OCCCCCCC(=O)NO)c(OC)cc23)c1` [Compound 162, 7-(4-(3-ethynylphenylamino)-6-methoxyquinazolin-7-yloxy)-N-hydroxyheptanamide], the figures for the IC50 on human EGFR, at HER2 and in the data set with HDAC were under 100 nM, 100 to 1000 nM and under 100 nM, respectively.
Regarding `COCCOc1cc2c(Nc3ccc(F)c(Cl)c3)ncnc2cc1OCCCCCCC(=O)NO` [Compound 167, 7-(4-(3-chloro-4-fluorophenylamino)-6-(2-methoxyethoxy)quinazolin-7-yloxy)-N-hydroxyheptanamide], the IC50 on human EGFR is under 100 nM; on HER2, 100 to 1000 nM; in the data set on HDAC, under 100 nM.
In the case of `C#Cc1cccc(Nc2ncnc3cc(OCCCCCCC(=O)NO)c(OCCOC)cc23)c1` [Compound 168, 7-(4-(3-ethynylphenylamino)-6-(2-methoxyethoxy)quinazolin-7-yloxy)-N-hydroxyheptanamide], the IC50 is under 100 nM at human EGFR, 100 to 1000 nM at HER2 and under 100 nM in the data set on HDAC.
Regarding `O=C(CCCCCCOc1ccc2ncnc(Nc3ccc(OCc4cccc(F)c4)c(Cl)c3)c2c1)NO` [Compound 198, 7-(4-(3-chloro-4-(3-fluorobenzyloxy)phenylamino)quinazolin-6-yloxy)-N-hydroxyheptanamide], the IC50 at human EGFR, at HER2 and with HDAC was under 100 nM each time.
For `COc1cc2ncnc(Nc3ccc(OCc4cccc(F)c4)c(Cl)c3)c2cc1OCCCCCCC(=O)NO` [Compound 199, 7-(4-(3-chloro-4-(3-fluorobenzyloxy)phenylamino)-7-methoxyquinazolin-6-yloxy)-N-hydroxyheptanamide], the IC50 at human EGFR, on HER2 and in the data set with HDAC was under 100 nM in each case.
With `COCCOc1cc2ncnc(Nc3ccc(OCc4cccc(F)c4)c(Cl)c3)c2cc1OCCCCCCC(=O)NO` [Compound 200], the IC50 at human EGFR, on HER2 and in the data set on HDAC was under 100 nM each time.
As to `O=C(CCCCCCCNCc1ccc(-c2ccc3ncnc(Nc4ccc(OCc5cccc(F)c5)c(Cl)c4)c3c2)o1)NO` [Compound 201], the IC50 at human EGFR is under 100 nM; on HER2, under 100 nM; with HDAC, 100 to 1000 nM.
With `C#Cc1cc(Nc2ncnc3cc(OC)c(OCCCCCCC(=O)NO)cc23)ccc1O` [Compound 206], the IC50 on human EGFR, on HER2 and in the data set with HDAC was under 100 nM each time.
In the case of `C#Cc1cccc(Nc2ncnc3cc(O)c(OCCCCCCC(=O)NO)cc23)c1` [Compound 207], the IC50 on human EGFR and on HER2 was under 100 nM throughout.

In general, melting point refers to the temperature of the solid-liquid transition.
